In patent publication US12582677B2, “Methods for producing retinal tissue and retina-related cell” (SUMITOMO CHEMICAL COMPANY, LIMITED, priority 2011, dated 2026):

What was measured:
Type in all cases: cell-based
[1] = system: RAX::GFP knock-in human ES cells; assay: Production of retinal tissue from human ES cell aggregates: GFP-expressing (retinal progenitor) cells by fluorescence microscopy and FACS
Description: RAX::GFP knock-in human ES cells (derived from KhES-1) were cultured according to the methods described in “Ueno, M. et al. PNAS 2006”, “Watanabe, K. et al. Nat Biotech 2007” and used for the experiment. As the medium, DMEM/F12 medium (Invitrogen) added with 20% KSR (Knockout Serum Replacement; Invitrogen), 0.1 mM 2-mercaptoethanol, 1 mM pyruvic acid, and 5 to 10 ng/ml bFGF was used. The ES cells were dispersed into single cells by using 0.25% trypsin-EDTA (Invitrogen), and floating-cultured in a serum-free medium (100 μl) at 37° C., 5% CO2 to 9×10^3 cells per well of a non-cell adhesive 96-well culture plate (SUMILON spheroid plate, SUMITOMO BAKELITE CO., LTD.). As the serum-free medium in this case, a serum-free medium obtained by adding 20% KSR, 0.1 mM 2-mercaptoethanol, 1 mM pyruvic acid and 20 μM Y27632 to G-MEM medium was used. During the floating culture, Matrigel in an amount of 1/100 per volume was added from day 2 from the start of the floating culture. Thereafter, fluorescence microscopic observation was regularly performed while continuing the floating culture.
RAX::GFP knock-in human ES cells (derived from KhES-1) were cultured according to the methods described in “Ueno, M. et al. PNAS 2006”, “Watanabe, K. et al. Nat Biotech 2007” and used for the experiment. As the medium, DMEM/F12 medium (Invitrogen) added with 20% KSR (Knockout Serum Replacement; Invitrogen), 0.1 mM 2-mercaptoethanol, 1 mM pyruvic acid, and 5-10 ng/ml bFGF was used. For the production of retinal tissue by floating culture, the ES cells were dissociated into single cells by using 0.25% trypsin-EDTA (Invitrogen), and floating-cultured in a serum-free medium (100 μl) at 37° C., 5% CO2 to 9×10^3 cells per well of a non-cell adhesive 96-well culture plate (SUMILON spheroid plate, SUMITOMO BAKELITE CO., LTD.). As the serum-free medium in this case, a serum-free medium obtained by adding 20% KSR, 0.1 mM 2-mercaptoethanol, 1 mM pyruvic acid, 20 μM Y27632 and a substance inhibiting the Nodal signal pathway (10 μM SB431542) to G-MEM medium was used. During the floating culture, Matrigel in an amount of 1/100 per volume was added from day 2 from the start of the floating culture. Thereafter, the floating culture was continued and fluorescence microscopic observation and confirmation of the proportion of the GFP-expressing cells were performed by FACS on day 18 from the start of the floating culture.
RAX::GFP knock-in human ES cells (derived from KhES-1) were cultured according to the methods described in “Ueno, M. et al. PNAS 2006”, “Watanabe, K. et al. Nat Biotech 2007” and used for the experiment. As the medium, DMEM/F12 medium (Invitrogen) added with 20% KSR (Knockout Serum Replacement; Invitrogen), 0.1 mM 2-mercaptoethanol, 1 mM pyruvic acid, and 5 to 10 ng/ml bFGF was used. For the production of retinal tissue by floating culture, the ES cells were dispersed into single cells by using 0.25% trypsin-EDTA (Invitrogen), and floating-cultured in a serum-free medium (100 μl) at 37° C., 5% CO2 to 9×10^3 cells per well of a non-cell adhesive 96-well culture plate (SUMILON spheroid plate, SUMITOMO BAKELITE CO., LTD.). As the serum-free medium in this case, a serum-free medium obtained by adding 20% KSR, 0.1 mM 2-mercaptoethanol, 1 mM pyruvic acid, 20 μM Y27632 and a substance inhibiting the Wnt signal pathway (3 μM IWR1e) to G-MEM medium was used. During the floating culture, Matrigel in an amount of 1/100 per volume was added from day 2 from the start of the floating culture. Thereafter, the floating culture was continued and fluorescence microscopic observation and confirmation of the proportion of the GFP-expressing cells were performed by FACS on day 18 from the start of the floating culture.
RAX::GFP knock-in human ES cells (derived from KhES-1) were cultured according to the methods described in “Ueno, M. et al. PNAS 2006”, “Watanabe, K. et al. Nat Biotech 2007” and used for the experiment. […]

[2] = system: RAX::GFP knock-in human ES cells; assay: Production of optic-cup-like structure from human ES cell aggregates; settings: 3 μM CHIR99021 and 100 nM SAG together in serum-containing medium from day 15
Description: RAX::GFP knock-in human ES cells (derived from KhES-1) were cultured according to the methods described in “Ueno, M. et al. PNAS 2006”, “Watanabe, K. et al. Nat Biotech 2007” and used for the experiment. As the medium, DMEM/F12 medium (Invitrogen) added with 20% KSR (Knockout Serum Replacement; Invitrogen), 0.1 mM 2-mercaptoethanol, 1 mM pyruvic acid, and 5 to 10 ng/ml bFGF was used. For the formation of aggregate by floating culture, the ES cells were dispersed into single cells by using 0.25% trypsin-EDTA (Invitrogen), suspended in a serum-free medium (100 μl) to 9×10^3 cells per well of a non-cell adhesive 96-well culture plate (SUMILON spheroid plate, SUMITOMO BAKELITE CO., LTD.) to allow for rapid formation of aggregates, and floating cultured at 37° C., 5% CO2. As the serum-free medium in this case, a serum-free medium obtained by adding 20% KSR, 0.1 mM 2-mercaptoethanol, 1 mM pyruvic acid, 20 μM Y27632 and a substance inhibiting the Wnt signal pathway (3 μM IWR1e) to G-MEM medium was used. During the floating culture, Matrigel in an amount of 1/100 per volume was added from day 2 from the start of the floating culture. The floating aggregate was transferred to a serum-free medium without a substance inhibiting the Wnt signal pathway on day 12 from the start of the floating culture, fetal calf serum in an amount of 1/10 per volume was added and the aggregate was cultured. […]

[3] = system: human ES cell-derived retinal tissue after freeze-thawing; assay: Treatment of human ES cell-derived retinal tissue after freeze-thawing with DAPT: GFP fluorescence, Recoverin and Brn3 immunostaining; settings: tissue freeze-thawed day 33, 10 μM DAPT added day 38
Description: RAX::GFP knock-in human ES cells (derived from KhES-1) were cultured according to the methods described in “Ueno, M. et al. PNAS 2006”, “Watanabe, K. et al. Nat Biotech 2007” and used for the experiment. As the medium, DMEM/F12 medium (Invitrogen) added with 20% KSR (Knockout Serum Replacement; Invitrogen), 0.1 mM 2-mercaptoethanol, 1 mM pyruvic acid, and 5 to 10 ng/ml bFGF was used. For the production of retinal tissue by floating culture, the ES cells were dispersed into single cells by using 0.25% trypsin-EDTA (Invitrogen), and floating-cultured in a serum-free medium (100 μl) at 37° C., 5% CO2 to 9×10^3 cells per well of a non-cell adhesive 96-well culture plate (SUMILON spheroid plate, SUMITOMO BAKELITE CO., LTD.). As the serum-free medium in this case, a serum-free medium obtained by adding 20% KSR, 0.1 mM 2-mercaptoethanol, 1 mM pyruvic acid, 20 μM Y27632 and a substance inhibiting the Wnt signal pathway (3 μM IWR1e) to G-MEM medium was used. […] Matrigel was added in an amount of 1/100 per volume from day 2 of the floating culture and floating culture was performed. Fetal calf serum in an amount of 1/10 per volume and a substance acting on the Shh signal pathway (100 nM SAG) were added on day 12 from the start of the floating culture and the floating culture was performed to produce a retinal tissue. The produced retinal tissue on day 33 from the start of the floating culture was freeze-thawed, and a Notch signal action inhibitory substance (10 μM DAPT) was added to the retinal tissue on day 38 from the start of the floating culture. […] The prepared frozen section was immunostained for Recoverin, which is one of the marker genes of photoreceptor, and Brn3, which is one of the marker genes of ganglion cells, and the results were compared between the presence and absence of DAPT-addition.

[4] = system: Crx::GFP knock-in human ES cell-derived retinal tissue; assay: Treatment of human ES cell-derived retinal tissue with DAPT: GFP fluorescence, Recoverin and Brn3 immunostaining; settings: 10 μM DAPT added day 29
Description: CrX::GFP knock-in human ES cells (derived from KhES-1) were cultured according to the methods described in “Ueno, M. et al. PNAS 2006”, “Watanabe, K. et al. Nat Biotech 2007” and used for the experiment. As the medium, DMEM/F12 medium (Invitrogen) added with 20% KSR (Knockout Serum Replacement; Invitrogen), 0.1 mM 2-mercaptoethanol, 1 mM pyruvic acid, and 5 to 10 ng/ml bFGF was used. The ES cells were dispersed into single cells by using 0.25% trypsin-EDTA (Invitrogen), and floating-cultured in a serum-free medium (100 μl) at 37° C., 5% CO2 to 9×10^3 cells per well of a non-cell adhesive 96-well culture plate (SUMILON spheroid plate, SUMITOMO BAKELITE CO., LTD.). As the serum-free medium in this case, a serum-free medium obtained by adding 20% KSR, 0.1 mM 2-mercaptoethanol, 1 mM pyruvic acid, 20 μM Y27632 and a substance inhibiting the Wnt signal pathway (3 μM IWR1e) to G-MEM medium was used. Matrigel was added in an amount of 1/100 per volume from day 2 of the floating culture and floating culture was performed. Fetal calf serum in an amount of 1/10 per volume and a substance acting on the Shh signal pathway (100 nM SAG) were added on day 12 of floating culture and the floating culture was performed to produce a retinal tissue. A substance acting on the Notch signal (10 μM DAPT (gamma secretase activity inhibitor)) was added to the retinal tissue on day 29 from the start of the floating culture, observed with a fluorescence microscope on day 41 from the start of the floating culture (day 12 after the addition), and fixed with 4% para-formaldehyde on day 43 from the start of the floating culture (day 14 after the addition), and a frozen section was prepared. The prepared frozen section was immunostained for Recoverin, which is one of the marker genes of photoreceptor, and Brn3, which is one of the marker genes of ganglion cells, and the results were compared between the presence and absence of DAPT-addition.

[5] = 100 nM SAG and fetal calf serum 1/10 added day 12, with 3 μM IWR1e and Matrigel, day 18

## CNC1CCC(N(Cc2cccc(-c3ccncc3)c2)C(=O)c2sc3ccccc3c2Cl)CC1 (stereo not shown) [SAG]
[1]; [5]
  GFP-expressing cells (fluorescence microscopic observation): a very high number of GFP-expressing cells emerged
  proportion of the GFP-expressing cells (FACS): not less than 70%
[1]; Example 2: serum and 100 nM SAG added simultaneously, with 3 μM IWR1e and Matrigel
  increase of proportion of GFP-expressing cells compared to Comparative Example 3: about 24 fold
[2]
  optic-cup-like structure formation on aggregate: a clear optic-cup-like structure was formed

## C[C@H](NC(=O)Cc1cc(F)cc(F)c1)C(=O)N[C@H](C(=O)OC(C)(C)C)c1ccccc1 [DAPT, N-[N-(3,5-difluorophenacetyl)-L-alanyl]-S-phenylglycine t-butyl ester]
[3]; day 49
  Recoverin-positive cells produced (immunostaining of frozen section): about 5 fold
  ganglion cells (immunostaining of Brn3): produced
[3]; observed day 49
  GFP-expressing cells (fluorescence microscope) compared to no DAPT: markedly produced
[4]; fixed day 43
  ganglion cells (immunostaining of Brn3): increased
  increase of Recoverin-positive cells (immunostaining of frozen section): 3- to 5 fold
[4]; observed day 41
  GFP-expressing cells (fluorescence microscope) compared to no DAPT: markedly increased

## O=C(Nc1cccc2cccnc12)c1ccc(N2C(=O)[C@@H]3[C@H](C2=O)[C@@H]2C=C[C@H]3C2)cc1 [IWR1e]
[1]; 3 μM IWR1e in serum-free medium, Matrigel 1/100 from day 2, compared to Comparative Examples 1 and 2
  GFP-expressing cells (fluorescence microscopic observation): clearly increased
[1]; 3 μM IWR1e, Matrigel, no serum (Comparative Example 3), day 18 of floating culture
  proportion of the GFP-expressing cells (FACS): 3.2%

## NC(=O)c1ccc(-c2nc(-c3ccc4c(c3)OCO4)c(-c3ccccn3)[nH]2)cc1 [SB431542]
[1]; 10 μM SB431542 in serum-free medium, Matrigel 1/100 from day 2
  GFP-expressing cells (fluorescence microscopic observation): somewhat found
